The numbers were not newly measured in patent US6265392A, “Low oxygen content compositions of 1α, 25-dihydroxycholeclciferol” (Abbott Laboratories, priority 2000, dated 2001), which cites them from elsewhere.

Structures are written as SMILES.

The subject of data set [1] is intestinal absorption of calcium and phosphorous. The settings on record: in vivo.
The conditions of data set [2]: free molecules and other reactive forms of oxygen; in solution.
Data set [3] relates to renal osteodystrophy, hypoparathyroidism, osteomalacia, osteoporosis, hepatic osteodystrophy, vitamin D-resistant rickets, vitamin D-dependent rickets …. The settings on record: children and adults; literature.

Turning to `C=C1/C(=C\C=C2/CCC[C@]3(C)[C@@H]([C@H](C)CCCC(C)(C)O)CC[C@@H]23)C[C@@H](O)C[C@@H]1O` [1α,25-dihydroxycholecalciferol], the “Solubility in organic solvents” value (organic solvents) was “soluble in organic solvents”. The Solubility in water entry (water) was “practically insoluble in water”. Also, the “Effect on intestinal absorption of calcium and phosphorous” value in data set [1] was “stimulates intestinal absorption of calcium and phosphorous”. In addition, in data set [2], the Sensitivity to oxygen entry is recorded as “sensitive to the presence of oxygen”. Moreover, the Treatment outcome in data set [3] is reported as “successful treatment”.
